The values below are quoted from earlier work in patent publication US20100227801A1, “PHARMACEUTICAL COMPOSITIONS” (Scynexis, Inc., priority 2009, published 2010).

The test system of one data set is HCV. Conditions: phase Ib clinical trial.
The test system of the next data set is HCV full length replicon. The settings on record: full length replicon system. A general note: In antiviral work, replicon cells carry a viral genome segment that copies itself.
A further data set deals with HCV subgenomic replicon. The settings on record: subgenomic replicon system.

SMILES strings stand for the structures.

`CC(C)OC(=O)[C@H](C)NP(=O)(OC[C@H]1O[C@@H](n2ccc(=O)[nH]c2=O)[C@](C)(F)[C@@H]1O)Oc1ccccc1` (stereo partly drawn) [PSI-7851]: the “activity against HCV infected patients” value in the data set on HCV is “demonstrated activity”.
In the case of `C/C=C/C[C@@H](C)[C@@H](O)[C@H]1C(=O)N[C@@H](CC)C(=O)N(C)[C@H](SCCN(C)C)C(=O)N(C)[C@@H](CC(C)(C)O)C(=O)N[C@@H](C(C)C)C(=O)N(C)[C@@H](CC(C)C)C(=O)N[C@@H](C)C(=O)N[C@H](C)C(=O)N(C)[C@@H](CC(C)C)C(=O)N(C)[C@@H](CC(C)C)C(=O)N(C)[C@@H](C(C)C)C(=O)N1C` [SCY-635, 3-[(R)-2-(N,N-dimethylamino)ethylthio-Sar]-4-(gammahydroxymethylleucine)cyclosporine], the “inhibition of HCV-specific RNA replication” value with HCV full length replicon is “potent and selective inhibition”; with HCV subgenomic replicon, “potent and selective inhibition”.
